Assay results from ChEMBL document CHEMBL3044604, “Synthesis of some substituted furan-2(5H)-ones and derived quinoxalinones as potential anti-microbial and anti-cancer agents” (Med Chem Res, 2011).
≈ marks a conversion by molar mass, not a printed value.

Legend:
[1] = molecular target: Glycogen synthase kinase-3 (Homo sapiens, UniProt P49840+P49841); assay: Inhibition of GSK3alpha/beta (unknown origin); format: protein assay
[2] = molecular target: Cyclin-dependent kinase 5/CDK5 activator 1 (Homo sapiens, UniProt Q00535); assay: Inhibition of CDK5/p25 (unknown origin); format: protein-complex assay
Chain of Cyclin-dependent kinase 5/CDK5 activator 1 (Q00535 whole entry): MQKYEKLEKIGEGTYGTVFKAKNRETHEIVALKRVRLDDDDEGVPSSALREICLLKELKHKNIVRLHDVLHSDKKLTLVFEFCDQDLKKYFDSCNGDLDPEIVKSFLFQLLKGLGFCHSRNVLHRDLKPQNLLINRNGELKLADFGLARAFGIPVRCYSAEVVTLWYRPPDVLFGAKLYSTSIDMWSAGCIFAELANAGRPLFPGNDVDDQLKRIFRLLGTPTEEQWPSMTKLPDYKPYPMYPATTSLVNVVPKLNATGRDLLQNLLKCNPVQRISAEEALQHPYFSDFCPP
Chain of Cyclin-dependent kinase 5/CDK5 activator 1 (Q15078 whole entry, further chain): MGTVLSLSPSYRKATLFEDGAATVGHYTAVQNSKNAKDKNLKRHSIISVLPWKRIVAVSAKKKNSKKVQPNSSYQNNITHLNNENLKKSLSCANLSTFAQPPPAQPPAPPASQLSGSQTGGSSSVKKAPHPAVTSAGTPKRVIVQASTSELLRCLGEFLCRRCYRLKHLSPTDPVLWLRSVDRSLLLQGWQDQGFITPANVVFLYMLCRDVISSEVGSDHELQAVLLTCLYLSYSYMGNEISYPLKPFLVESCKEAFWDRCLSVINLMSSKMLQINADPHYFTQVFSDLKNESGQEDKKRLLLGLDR

[3] = Inhibition of Marthasterias glacialis CDK1/cyclin B using histone H1 as substrate and [gamma32P]ATP after 10 min by scintillation counting
[4] = test system: Candida albicans; assay: Antifungal activity against Candida albicans ATCC 10231 at 1 mg/ml after 24 hr by agar cup diffusion method; format: functional; settings: ATCC 10231, 24 h, read-out: DIZ
[5] = test system: Staphylococcus aureus; assay: Antibacterial activity against Staphylococcus aureus ATCC 6538 incubated for 48 hr followed by subculturing measured after 18 hr; format: functional
[6] = test system: Staphylococcus aureus; assay: Antibacterial activity against Staphylococcus aureus ATCC 6538 after 48 hr by two fold serial dilution method; format: functional; settings: ATCC 6538, 48 h
[7] = test system: Staphylococcus aureus; assay: Antibacterial activity against Staphylococcus aureus ATCC 6538 at 1 mg/ml after 24 hr by agar cup diffusion method; format: functional; settings: ATCC 6538, 24 h, read-out: DIZ
[8] = test system: Escherichia coli; assay: Antibacterial activity against Escherichia coli NCTC 10418 at 1 mg/ml after 24 hr by agar cup diffusion method; format: functional; settings: NCTC 10418, 24 h, read-out: DIZ
[9] = test system: Candida albicans; assay: Antifungal activity against Candida albicans ATCC 10231 incubated for 48 hr followed by subculturing measured after 18 hr; format: functional
[10] = test system: Candida albicans; assay: Antifungal activity against Candida albicans ATCC 10231 after 48 hr by two-fold serial dilution method; format: functional; settings: ATCC 10231, 48 h
[11] = test system: Pseudomonas aeruginosa; assay: Antibacterial activity against Pseudomonas aeruginosa ATCC 9027 incubated for 48 hr followed by subculturing measured after 18 hr; format: functional
[12] = test system: Escherichia coli; assay: Antibacterial activity against Escherichia coli NCTC 10418 incubated for 48 hr followed by subculturing measured after 18 hr; format: functional
[13] = test system: Pseudomonas aeruginosa; assay: Antibacterial activity against Pseudomonas aeruginosa ATCC 9027 after 48 hr by two-fold serial dilution method; format: functional; settings: ATCC 9027, 48 h
[14] = test system: Escherichia coli; assay: Antibacterial activity against Escherichia coli NCTC 10418 after 48 hr by two-fold serial dilution method; format: functional; settings: NCTC 10418, 48 h
[15] = test system: Pseudomonas aeruginosa; assay: Antibacterial activity against Pseudomonas aeruginosa ATCC 9027 at 1 mg/ml after 24 hr by agar cup diffusion method; format: functional; settings: ATCC 9027, 24 h, read-out: DIZ

Row | IC50 [1] [µM] | IC50 [2] [µM] | IC50 [3] [µM] | MIC [6] [µg/mL] | MIC [10] [µg/mL] | MIC [13] [µg/mL] | MIC [14] [µg/mL] | Structure (SMILES) | zone of inhibition at 1000 µg/mL [4] [mm] | MBC [5] [µg/mL] | zone of inhibition at 1000 µg/mL [7] [mm] | zone of inhibition at 1000 µg/mL [8] [mm] | MFC [9] [µg/mL] | MBC [11] [µg/mL] | MBC [12] [µg/mL] | zone of inhibition at 1000 µg/mL [15] [mm]
1 | > 10 | > 10 | > 10 | – | – | – | – | Cc1nn(-c2ccccc2)c(C)c1C1OC(=O)C(O)=C1Cl (configuration not stated) | 16.5 | – | – | – | – | – | – | –
2 | > 10 | > 10 | > 10 | – | – | – | – | O=C1OC(c2ccc(Cl)cc2)C(I)=C1O (configuration not stated) | 17 | – | – | – | – | – | – | –
3 | > 10 | > 10 | > 10 | – | – | – | – | O=c1[nH]c2ccccc2nc1/C(I)=C/c1ccc(Cl)cc1 | – | – | – | 15 | – | – | – | 16.5
4 | > 10 | > 10 | > 10 | 125 (≈ 478 µM) | – | 31.2 (≈ 120 µM) | 125 (≈ 478 µM) | O=C(O)/C(Br)=C/c1ccc(Cl)cc1 | 15 | 500 (≈ 1910 µM) | 30 | 18 | – | 62.5 (≈ 239 µM) | 500 (≈ 1910 µM) | 18
5 | > 10 | > 10 | > 10 | – | – | 31.2 (≈ 97.3 µM) | 31.2 (≈ 97.3 µM) | Cc1nn(-c2ccccc2)c(C)c1/C=C(\Br)C(=O)O | – | – | – | 19 | – | 62.5 (≈ 195 µM) | 125 (≈ 389 µM) | 20
6 | > 10 | > 10 | > 10 | – | 31.2 (≈ 98.2 µM) | – | 31.2 (≈ 98.2 µM) | O=C(O)C(=O)/C=C/c1cn(-c2ccccc2)nc1-c1ccccc1 | 21 | – | – | 19 | 125 (≈ 393 µM) | – | 125 (≈ 393 µM) | 12
7 | > 10 | > 10 | > 10 | – | 7.81 (≈ 19.7 µM) | – | 62.5 (≈ 157 µM) | O=C(O)C(=O)/C=C/c1cn(-c2ccccc2)nc1-c1ccc(Br)cc1 | 21 | – | – | 19 | 31.2 (≈ 78.7 µM) | – | > 500 | 13
8 | – | – | – | 3.9 (≈ 11.2 µM) | – | 125 (≈ 358 µM) | 7.81 (≈ 22.4 µM) | CC1(C)S[C@@H]2[C@H](NC(=O)[C@H](N)c3ccccc3)C(=O)N2[C@H]1C(=O)O [AMPICILLIN] | – | 15.6 (≈ 44.7 µM) | 40 | 26 | – | 250 (≈ 715 µM) | 31.2 (≈ 89.4 µM) | –

Second part, the compound before the results:

Row | Structure (SMILES) | IC50 [1] [µM] | IC50 [2] [µM] | IC50 [3] [µM] | MIC [6] [µg/mL] | MIC [10] [µg/mL] | MIC [13] [µg/mL] | MIC [14] [µg/mL] | zone of inhibition at 1000 µg/mL [4] [mm] | MBC [5] [µg/mL] | zone of inhibition at 1000 µg/mL [7] [mm] | zone of inhibition at 1000 µg/mL [8] [mm] | MFC [9] [µg/mL] | MBC [11] [µg/mL] | MBC [12] [µg/mL] | zone of inhibition at 1000 µg/mL [15] [mm]
9 | COc1ccc(-c2nn(-c3ccccc3)cc2C2OC(=O)C(O)=C2Br)cc1 (configuration not stated) | > 10 | > 10 | > 10 | – | – | – | – | 15 | – | – | – | – | – | – | –
10 | O=C1OC(c2cn(-c3ccccc3)nc2-c2ccc(Br)cc2)C(Br)=C1O (configuration not stated) | > 10 | > 10 | > 10 | 125 (≈ 263 µM) | – | – | – | 16 | 250 (≈ 525 µM) | 18 | 17 | – | – | – | –
11 | O=C1OC(c2ccccc2)C(I)=C1O (configuration not stated) | > 10 | > 10 | > 10 | – | 62.5 (≈ 207 µM) | – | – | 20.5 | – | – | – | 125 (≈ 414 µM) | – | – | –
12 | COc1ccc(C2OC(=O)C(O)=C2I)cc1OC (configuration not stated) | > 10 | > 10 | > 10 | – | – | – | – | 17.5 | – | – | – | – | – | – | –
13 | Cc1nn(-c2ccccc2)c(C)c1C1OC(=O)C(O)=C1I (configuration not stated) | > 10 | > 10 | > 10 | 31.2 (≈ 78.9 µM) | – | – | – | 17.5 | 62.5 (≈ 158 µM) | 19 | – | – | – | – | –
14 | O=C(COC1=C(Br)C(c2ccccc2)OC1=O)NCc1ccccc1 (configuration not stated) | > 10 | > 10 | > 10 | 7.81 (≈ 19.4 µM) | – | 7.81 (≈ 19.4 µM) | 7.81 (≈ 19.4 µM) | 17 | 15.6 (≈ 38.8 µM) | 23 | 24 | – | 31.2 (≈ 77.7 µM) | 15.6 (≈ 38.8 µM) | 25
15 | O=c1[nH]c2ccccc2nc1/C(Cl)=C/c1ccc(Cl)cc1 | > 10 | > 10 | > 10 | 15.6 (≈ 49.2 µM) | – | – | – | 17 | 125 (≈ 394 µM) | 25 | – | – | – | – | 15
16 | O=c1[nH]c2ccccc2nc1/C(I)=C/c1ccccc1 | > 10 | > 10 | > 10 | – | – | – | – | 16 | – | – | – | – | – | – | –
17 | Cc1nn(-c2ccccc2)c(C)c1/C=C(\I)c1nc2ccccc2[nH]c1=O | > 10 | > 10 | > 10 | – | – | – | 62.5 (≈ 133 µM) | – | – | – | 20 | – | – | 250 (≈ 534 µM) | 17.5
18 | O=C(O)/C(Br)=C/c1cn(-c2ccccc2)nc1-c1ccc(Br)cc1 | > 10 | > 10 | > 10 | 31.2 (≈ 69.7 µM) | – | 250 (≈ 558 µM) | – | 15 | 62.5 (≈ 139 µM) | 33 | 17 | – | 500 (≈ 1120 µM) | – | 18
19 | COc1ccc(-c2nn(-c3ccccc3)cc2/C=C/C(=O)C(=O)O)cc1 | > 10 | > 10 | > 10 | 125 (≈ 359 µM) | 31.2 (≈ 89.7 µM) | – | – | 20 | > 500 | 19 | 17 | 125 (≈ 359 µM) | – | – | 13
20 | O=C1OC(c2ccccc2)C(Br)=C1O (configuration not stated) | > 10 | > 10 | > 10 | 62.5 (≈ 245 µM) | 31.2 (≈ 123 µM) | – | 62.5 (≈ 245 µM) | 20.5 | > 500 | 23 | 21 | 62.5 (≈ 245 µM) | – | 250 (≈ 980 µM) | 13.5
21 | O=C1OC(c2ccc(Cl)cc2)C(Br)=C1O (configuration not stated) | > 10 | > 10 | > 10 | 62.5 (≈ 216 µM) | 31.2 (≈ 108 µM) | – | 31.2 (≈ 108 µM) | 21 | 150 (≈ 518 µM) | 20 | 20 | 62.5 (≈ 216 µM) | – | 125 (≈ 432 µM) | –
22 | Cc1nn(-c2ccccc2)c(C)c1C1OC(=O)C(O)=C1Br (configuration not stated) | > 10 | > 10 | > 10 | 62.5 (≈ 179 µM) | – | – | – | 17 | 125 (≈ 358 µM) | 19 | 17 | – | – | – | –
23 | O=C1OC(c2cn(-c3ccccc3)nc2-c2ccccc2)C(Br)=C1O (configuration not stated) | > 10 | > 10 | > 10 | – | – | 62.5 (≈ 157 µM) | 62.5 (≈ 157 µM) | 16.5 | – | – | 19 | – | 125 (≈ 315 µM) | 250 (≈ 629 µM) | 19
24 | Clc1ccccc1C(c1ccccc1)(c1ccccc1)n1ccnc1 [CLOTRIMAZOLE] | – | – | – | – | 7.81 (≈ 22.6 µM) | – | – | 28 | – | – | – | 15.6 (≈ 45.3 µM) | – | – | –
